{"source": "patent US9615577B2", "about": "“Herbicidally active cyclic dione compounds, or derivatives therefor, substituted by a phenyl which has an alkynyl-containing substituent” (Syngenta Limited, priority 2012, dated 2017)", "assay_in_all_cases": "Test 1B glasshouse assay for herbicidal activity, post-emergence", "format_in_all_cases": "in vivo", "key": {"[1]": {"test_system": "Triticum aestivum (TRZAW, winter wheat)", "details": "360 h", "protocol": "(§1) Seeds of a variety of monocotyledonous and dicotyledonous test plants are sown in standard soil in pots. The plants are cultivated for one day (for pre-emergence) or for about 12 days (range=10-13 days) (for post-emergence) under controlled conditions in a glasshouse (warm climate species at 24/18° C., cool climate species at 20/16° C., both at day/night; 16 hours light; 65% humidity).\n(§2) An “instant formulation”, known as the “IF50”, containing 50 g/liter (i.e. 5% w/v) of the “technical” (i.e. unformulated) active ingredient is prepared by dissolving the active ingredient in a mixture of organic solvents and emulsifier, details of which are provided in the Table below. This IF50 is then mixed with a small, variable amount of acetone to aid dissolution, before addition of a 0.2% v/v aqueous solution of the adjuvant X-77 (which is a mixture of alkyl aryl polyoxyethylene glycols and free fatty acids in isopropanol, CAS Registry number 11097-66-8), as the aqueous diluent, to form an aqueous spray solution which contains a predetermined concentration of the active ingredient (which varies depending on the application rate of the active ingredient to the plants) and 0.2% v/v of the adjuvant X-77. This aqueous spray solution is then sprayed onto the plants, after one day's cultivation (for pre-emergence) or after about 12 days' cultivation (for post-emergence).\n(§3) The test plants are then grown on, in a glasshouse (greenhouse) under controlled conditions (at either 24/18° C. or 20/16° C. (day/night) as mentioned above; 16 hours light; 65% humidity) and are watered twice daily. Either 15 days after application of the herbicide (15 DAA) (for post-emergence), or 20 days after application of the herbicide (20 DAA) (for pre-emergence), the test plants are evaluated visually, and an assessed percentage phytotoxicity score is given for each herbicidal application on each plant species (where 100%=total damage to plant; 0%=no damage to plant).\n(§4) Cool climate crop plants: Triticum aestivum (TRZAW, winter wheat), Brassica napus (BRSNN, rape, also called oilseed rape or rapeseed), Beta vulgaris (BEAVA, sugar beet)."}, "[2]": {"test_system": "Brassica napus (BRSNN, rape)", "details": "360 h", "protocol": "as §1, §2, §3, §4"}, "[3]": {"test_system": "Beta vulgaris (BEAVA, sugar beet)", "details": "360 h, 250 g/ha application rate", "protocol": "as §1, §2, §3, §4"}, "[4]": {"test_system": "Glycine max (GLXMA, soybean)", "details": "360 h", "protocol": "as §1, §2, §3\nWarm climate crop plants: Glycine max (GLXMA, soybean)."}, "[5]": {"test_system": "Echinochloa crus-galli (ECHCG)", "protocol": "as §1, §2, §3\n(§5) Warm climate (“warm season”) grassy monocotyledonous weeds: Setaria faberi (SETFA), SORVU (Sorghum bicolor (L.) Moench ssp. Bicolor, or Sorghum vulgare Pers.), Digitaria sanguinalis (DIGSA), Echinochloa crus-galli (ECHCG), and Brachiaria plantaginea (BRAPL).\nNote: The herbicidal activity data (e.g. post-emergence) shown above in Biological Example 1B for Comparator compounds X-9 and X-10 is thought likely to have been measured some years ago, probably using a variant of the above-described test method. Also, for the post-emergence activity of X-9 and X-10 it is not currently known exactly how many days after application of the herbicide the phytotoxicity on the plants was measured."}, "[6]": {"test_system": "Setaria faberi (SETFA)", "details": "360 h", "protocol": "as §1, §2, §3, §5"}, "[7]": {"test_system": "Digitaria sanguinalis (DIGSA)", "details": "360 h", "protocol": "as §1, §2, §3, §5"}, "[8]": {"test_system": "Brachiaria plantaginea (BRAPL)", "details": "Urochloa plantaginea", "protocol": "as §1, §2, §3, §5"}, "[9]": {"test_system": "SORVU (Sorghum bicolor (L.) Moench ssp. Bicolor, or Sorghum vulgare Pers.)", "details": "360 h, 250 g/ha application rate", "protocol": "as §1, §2, §3, §5"}, "[10]": {"test_system": "Avena fatua (AVEFA)", "details": "360 h", "protocol": "as §1, §2, §3\n(§6) Cool climate (“cool season”) grassy monocotyledonous weeds: Alopecurus myosuroides (ALOMY), Avena fatua (AVEFA), Lolium perenne (LOLPE)."}, "[11]": {"test_system": "Lolium perenne (LOLPE)", "details": "360 h", "protocol": "as §1, §2, §3, §6"}, "[12]": {"test_system": "Alopecurus myosuroides (ALOMY)", "details": "360 h", "protocol": "as §1, §2, §3, §6"}}, "data": [{"smiles": "CC#Cc1cc(Cl)c(C2C(=O)C3CCC(C3)C2=O)c(OCCOC)c1", "note": "(centres unmarked) [Compound A-18]", "values": [{"measurement": "plant injury at 250 g/ha", "setting": "[1]; 250 g/ha application rate", "result": 10, "unit": "%"}, {"measurement": "plant injury at 250 g/ha", "setting": "[2]; 250 g/ha application rate", "result": 30, "unit": "%"}, {"measurement": "plant injury at 250 g/ha", "setting": "[3]", "result": 30, "unit": "%"}, {"measurement": "plant injury at 250 g/ha", "setting": "[4]; 250 g/ha application rate", "result": 20, "unit": "%"}, {"measurement": "pest or weed control at 250 g/ha", "setting": "[5]; Echinochloa crus-galli, 250 g/ha application rate", "result": 90, "unit": "%"}, {"measurement": "pest or weed control at 250 g/ha", "setting": "[6]; 250 g/ha application rate", "result": 80, "unit": "%"}, {"measurement": "pest or weed control at 250 g/ha", "setting": "[7]; 250 g/ha application rate", "result": 90, "unit": "%"}, {"measurement": "pest or weed control at 250 g/ha", "setting": "[8]; 250 g/ha application rate", "result": 70, "unit": "%"}, {"measurement": "pest or weed control at 250 g/ha", "setting": "[9]", "result": 100, "unit": "%"}, {"measurement": "pest or weed control at 250 g/ha", "setting": "[10]; 250 g/ha application rate", "result": 20, "unit": "%"}, {"measurement": "pest or weed control at 250 g/ha", "setting": "[11]; 250 g/ha application rate", "result": 0, "unit": "%"}, {"measurement": "pest or weed control at 250 g/ha", "setting": "[12]; 250 g/ha application rate", "result": 0, "unit": "%"}]}, {"smiles": "CCc1cc(C)cc(CC)c1C1C(=O)C2CCC(C2)C1=O", "note": "(centres unmarked) [Compound X-10, reference compound]", "values": [{"measurement": "plant injury at 60 g/ha", "setting": "[1]; 60 g/ha application rate", "result": 20, "unit": "%"}, {"measurement": "plant injury at 60 g/ha", "setting": "[2]; 60 g/ha application rate", "result": 0, "unit": "%"}, {"measurement": "plant injury at 60 g/ha", "setting": "[4]; 60 g/ha application rate", "result": 0, "unit": "%"}, {"measurement": "post-emergence activity on ECHCG compared with Compound A-5", "setting": "[5]; 60 g/ha, probably a variant of the test method, days after application not known", "result": "lower post-emergence activity"}, {"measurement": "pest or weed control at 60 g/ha", "setting": "[5]; Echinochloa crus-galli, 60 g/ha application rate", "result": 70, "unit": "%"}, {"measurement": "pest or weed control at 60 g/ha", "setting": "[6]; 60 g/ha application rate", "result": 100, "unit": "%"}, {"measurement": "pest or weed control at 60 g/ha", "setting": "[7]; 60 g/ha application rate", "result": 100, "unit": "%"}, {"measurement": "pest or weed control at 60 g/ha", "setting": "[8]; 60 g/ha application rate", "result": 90, "unit": "%"}, {"measurement": "pest or weed control at 60 g/ha", "setting": "[10]; 60 g/ha application rate", "result": 50, "unit": "%"}, {"measurement": "pest or weed control at 60 g/ha", "setting": "[11]; 60 g/ha application rate", "result": 70, "unit": "%"}, {"measurement": "pest or weed control at 60 g/ha", "setting": "[12]; 60 g/ha application rate", "result": 80, "unit": "%"}]}]}
